Tests used:
lambsquarters = assay: Test B pre-/postemergence herbicide test; type: in vivo, Chenopodium album
Procedure, shortened: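 Flooded paddy rice and barnyardgrass were treated at the 2-leaf stage; upland plantings received compound either on sown seed or on 1- to 4-leaf seedlings. All were kept 13–15 days in a greenhouse and scored visually, 0–100, relative to untreated plants.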

barnyardgrass = assay: Test B flooded paddy test; type: in vivo, Echinochloa crus-galli; conditions: 1000 g ai/ha, scale 0 to 100 (0 no effect, 100 complete control)
Procedure, shortened: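 Visual control ratings, 0–100 versus untreated controls, taken after 13 to 15 days in the greenhouse. Blackgrass received a postemergence spray at the 1- to 4-leaf stage (2–18 cm); ducksalad, umbrella sedge and barnyardgrass were flooded-paddy treated at 2 leaves.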

Surinam grass = assay: Test C pre-/postemergence herbicide test; type: in vivo, Urochloa decumbens; conditions: for Plant response rating, Surinam Grass: preemergence
Procedure, shortened: (§1)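 Greenhouse-grown plants were evaluated visually 12 to 14 days after treatment, with 100 meaning complete control and 0 no effect. Application was preemergence, or postemergence at 2 to 18 cm.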

goosegrass = assay: Test C pre-/postemergence herbicide test; type: in vivo, Eleusine indica; conditions: for Plant response rating, Goosegrass: preemergence
Procedure, shortened: as §1

pigweed = assay: Test C pre-/postemergence herbicide test; type: in vivo, Amaranthus retroflexus; conditions: for Plant response rating, Pigweed: preemergence
Procedure, shortened: as §1

soybean = assay: Test C pre-/postemergence herbicide test; type: in vivo, Glycine max; conditions: for Plant response rating, Soybean: preemergence
Procedure, shortened: as §1

rice = assay: Test C flooded paddy test; type: in vivo, Oryza sativa; conditions: for Plant response rating, Rice: 500 g ai/ha, visual rating after 12 to 14 days
Procedure, shortened: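 Injury scored visually against controls on a 0 (no effect) to 100 (complete control) scale, 12 to 14 days after treatment in greenhouse. Flooded paddy plants treated at 2-leaf stage; postemergence plants at 1- to 4-leaf stage, 2 to 18 cm tall.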

[1] = 125 g ai/ha; 0 = no effect, 100 = complete control; preemergence
[2] = 125 g ai/ha; visual rating, scale 0 (no effect) to 100 (complete control); postemergence
[3] = 500 g ai/ha; visual rating, 0 = no effect, 100 = complete control; preemergence
[4] = postemergence, 500 g ai/ha; scale 0 to 100, 0 is no effect, 100 is complete control
[5] = 500 g ai/ha, scale 0 to 100 (0 no effect, 100 complete control), visual, 12 to 14 days
[6] = 125 g ai/ha, scale 0 (no effect) to 100 (complete control), visual, 12 to 14 days
[7] = 125 g ai/ha, scale 0 to 100 (0 no effect, 100 complete control)
[8] = 250 g ai/ha, scale of 0 to 100, 0 is no effect, 100 is complete control
[9] = scale 0 to 100 (0 no effect, 100 complete control)
[10] = Preemergence, 500 g ai/ha, scale 0 to 100, 0 no effect, 100 complete control

SMILES	Lambsquarters plant response rating (0 to 100 scale) (lambsquarters; [1])	Lambsquarters plant response rating (lambsquarters; [2])	Plant response rating, Lambsquarters (lambsquarters; [3])	Lambsquarters plant response rating (lambsquarters; [4])	Barnyardgrass plant response rating (barnyardgrass)	Plant response rating, Surinam Grass (Surinam grass; 62 g ai/ha, scale 0 to 100)	Plant response rating, Surinam Grass (Surinam grass; 250 g ai/ha, scale 0-100)	Plant response rating, Surinam Grass (Surinam grass; [5])	Plant response rating, Goosegrass (goosegrass; 62 g ai/ha, scale 0 to 100)	Plant response rating, Goosegrass (goosegrass; [6])	Plant response rating, Goosegrass (goosegrass; 250 g ai/ha, scale 0-100)	Plant response rating, Goosegrass (goosegrass; [5])	Plant response rating, Pigweed (pigweed; 62 g ai/ha, scale 0 to 100)	Plant response rating, Pigweed (pigweed; [6])	Plant response rating, Pigweed (pigweed; 250 g ai/ha, scale 0-100)	Plant response rating, Soybean (soybean; 62 g ai/ha, scale 0 to 100)	Plant response rating, Soybean (soybean; 250 g ai/ha, scale 0-100)	Rice plant response rating (rice; [7])	Rice plant response rating (rice; [8])	Plant response rating, Rice (rice; [9])	further results
CCN1N=C(C(C)(C)C)CC1C(=O)Nc1cc(C(=O)N2CC=CC2)ccc1F (racemic) [Compound 310]	100	60	100	80	90	5	30	50	70	80	95	95	100	100	100	0	30	60	70	80	Plant response rating, Pigweed (pigweed; [5]): 100; Rice plant response rating (rice; 62 g ai/ha, scale 0 to 100): 35
CCn1nc(C2(C)CC2)cc1C(=O)Nc1cc(C(=O)N2CC=CC2)ccc1F [Compound 301]	100	70	100	80	90	0	80	90	50	90	100	100	100	100	100	15	20	55	75	85	Plant response rating, Pigweed (pigweed; [5]): 100; Plant response rating, Soybean (soybean; [5]): 45; Rice plant response rating (rice; 62 g ai/ha, scale 0 to 100): 50
CCNC(=O)c1ccc(F)c(NC(=O)c2cn(C(C)(C)C)nc2CC)c1 [Compound 193]	100					50	95		60	80	80		100	100	100	30	50	50	70	75	Plant response rating, Lambsquarters (lambsquarters; 500 g ai/ha; visual rating 0-100, 0 no effect, 100 complete control; preemergence): 100; Lambsquarters plant response rating (lambsquarters; postemergence, 125 g ai/ha; visual rating, scale 0 (no effect) to 100 (complete control)): 90; Lambsquarters plant response rating (lambsquarters; postemergence, 500 g ai/ha; visual rating, scale 0 (no effect) to 100 (complete control)): 90; Barnyardgrass plant response rating (barnyardgrass; visual rating, 13 to 15 days): 80; Plant response rating, Surinam Grass (Surinam grass; [6]): 80; Surinam Grass plant response rating (Surinam grass; [10]): 100; Goosegrass plant response rating (goosegrass; [10]): 95; Pigweed plant response rating (pigweed; [10]): 100; Plant response rating, Soybean (soybean; [6]): 30; Soybean plant response rating (soybean; [10]): 100; Rice plant response rating (rice; 62 g ai/ha, scale 0 to 100 (0 no effect, 100 complete control)): 25

— US20060069132A1, “Azolecarboxamide herbicides” (priority 2004, published 2006)
